Results as given in PMC12010006, “Subnanomolar MAS-related G protein-coupled receptor-X2/B2 antagonists with efficacy in human mast cells and disease models” (Signal Transduction and Targeted Therapy, 2025).

Experiments:
MRGPRX3 = target: T1, MRGPRX3 (Homo sapiens, UniProt Q96LB0); assay: β-arrestin assay, CHO cells expressing MRGPRX3 (subtype selectivity); type: cell-based; conditions: 10 µM, versus PSB-20294
T1 construct: inferred from the enzyme-complementation principle of the assay; expressed in transfected cells; host or cells: CHO-K1 beta-arrestin-2 (EA) cells
Protocol: Fig. 1 Characterization of MRGPRX2 inhibitor 1. a Chemical structure and molecular weight (MW) of 1. b Concentration-response curve of 1 determined in β-arrestin recruitment assays. CHO cells that recombinantly express MRGPRX2 were employed versus the agonist CST-14 (at its EC80 value of 1.0 µM). […] Data are means ± SEM of 3 biological replicates, performed in duplicates. c MRGPRX subtype selectivity of 1 (10 µM) determined in β-arrestin assays using CHO cells that recombinantly express the respective MRGPRX subtype. MRGPRX1 was activated by BAM-22P (8.5 µM),[19] MRGPRX2 was activated by CST-14 (1 µM), MRGPRX3 was activated by PSB-20294 (1 µM), and MRGPRX4 by PSB-18061 (2.6 µM).[44] […] The effect of each MRGPRX agonist was assessed in the absence and in the presence of 1; results were normalized to the maximal agonist effect. […] Statistical significance was determined by one-way ANOVA (Tukey’s multiple comparisons) test (ns P > 0.05 and ****P < 0.0001) TEXT PRINTED IN THE PICTURE: (a) 1 Hit compound: MW: 241.29 g/mol
Fig. 3 Biological characterization of PSB-172656. a Selectivity of PSB-172656 (100 nM) for MRGPRX2 over MRGPRX1, MRGPRX3, and MRGPRX4 measured in β-arrestin assays utilizing β-arrestin-CHO cells with recombinant expression of the respective receptor. […] Statistical significance was determined by one-way ANOVA (Tukey’s multiple comparison) test (ns P > 0.05). […]

MRGPRX2 = target: T2, MRGPRX2 (Homo sapiens, UniProt Q96LB1); assay: β-arrestin assay (agonist mode), β-arrestin CHO cells recombinantly expressing MRGPRX2; type: cell-based; conditions: for EC50: agonist test, read-out: β-Arrestin assay EC50 ± SEM; for β-Arrestin assay % activation: normalized to CST-14 (EC80 5,000 nM)
T2 sequence (Q96LB1 1-330): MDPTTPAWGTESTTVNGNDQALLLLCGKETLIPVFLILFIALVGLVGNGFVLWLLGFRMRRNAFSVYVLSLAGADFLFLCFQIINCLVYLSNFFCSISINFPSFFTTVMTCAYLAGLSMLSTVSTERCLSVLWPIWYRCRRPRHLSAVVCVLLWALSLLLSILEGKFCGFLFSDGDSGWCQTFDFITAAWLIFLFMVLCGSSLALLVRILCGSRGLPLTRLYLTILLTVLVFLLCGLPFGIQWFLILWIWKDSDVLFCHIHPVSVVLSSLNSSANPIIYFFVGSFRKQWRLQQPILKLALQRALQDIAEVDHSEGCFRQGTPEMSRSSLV
From the text: Eurofins DiscoverX (Fremont, CA, USA) provided engineered Chinese hamster ovary (CHO) cells stably expressing β-arrestin-2 fused to a large β-galactosidase fragment (enzyme acceptor, EA). These CHO-K1-β-arrestin-2 cells were commercially available (93-0164). CHO-K1-β-arrestin-2 cells that additionally expressed MRGPRX1, -2, or -4 fused to the fragment ProLink™ (PK) were also purchased from the same company (93-0919C2, 93-0309C2, and 3-0541C2A, respectively). CHO cells expressing MRGPRX3 were generated as previously […].[31] The cells were grown in F-12 Ham Nutrient Mixture (Life Technologies) supplemented with 10% FBS, 100 U/mL of penicillin, 100 µg/mL of streptomycin (PAN-Biotech), 300 μg/mL of hygromycin B (PAN-Biotech), and 800 μg/mL of gentamicin (PAN-Biotech) at 37 °C and 5% CO2.).
The assays were carried out as previously described.[22] […] After 30 min of incubation at 37 °C and 5% CO2, Cortistatin-14 (CST-14, Bioscience, Bristol, United Kingdom) or another MRGPRX2 agonist that served as a standard agonist was added, and the mixture was incubated for 90 min at 37 °C and 5% CO2. Next, a detection reagent (50 µL, DiscoverX) was added, and the mixture was incubated at room temperature in the dark for 60 min. Chemiluminescence was measured on a Mithras LB 940 plate reader (Berthold Technologies, Bad Wildbad, Germany). The results represent means ± SEM of three to five independent experiments, each in duplicates.
^d β-Arrestin CHO cells recombinantly expressing MRGPRX2
^f Percentage of activation of normalized to CST-14 (EC80 5,000 nM)

T1 sequence (Q96LB0 whole entry): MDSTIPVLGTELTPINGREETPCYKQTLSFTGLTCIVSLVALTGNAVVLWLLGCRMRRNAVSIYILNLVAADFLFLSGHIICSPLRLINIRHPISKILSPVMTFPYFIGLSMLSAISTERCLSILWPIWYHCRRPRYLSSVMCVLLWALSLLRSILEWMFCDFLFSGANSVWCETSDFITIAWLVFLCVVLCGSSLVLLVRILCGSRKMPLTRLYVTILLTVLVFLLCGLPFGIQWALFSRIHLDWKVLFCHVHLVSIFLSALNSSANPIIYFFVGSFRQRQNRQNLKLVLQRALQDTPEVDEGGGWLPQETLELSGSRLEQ

| inhibition of MRGPRX3 activation (MRGPRX3) | EC50 (MRGPRX2) [µM] | β-Arrestin assay % activation (MRGPRX2) [%] | SMILES |
| --- | --- | --- | --- |
| no inhibition | > 10 | 1 | CCCc1c(C)[nH]c2nc3ccccc3n2c1=O [Compound 1, 2-methyl-3-propylbenzo[4,5]imidazo[1,2-a]pyrimidin-4(1H)-one] |
| not able to block | > 10 | -1 | CCc1c(C(C)C)[nH]c2nc3cc(F)c(F)cc3n2c1=O [Compound 24, 3-ethyl-7,8-difluoro-2-isopropylbenzo[4,5]imidazo [1,2-a] pyrimidin-4(1H)-one] |
